Earlier results on two compounds are cited in paper PMC6862717 (ACS chemical neuroscience, 2018).

In data set [1] the test system is animal model of neuropathic pain.
The test system of data set [2] is transgenic animal model of AD.

As for UKH-1114, the mechanical hypersensitivity entry in data set [1] is listed as “relieves mechanical hypersensitivity”.

`CN1CCN(c2ccc3c(c2)[C@H]2C[C@@H]3CCN2C(=O)OCc2ccccc2)CC1` (racemic) [SAS-0132]: the “efficacy in a transgenic animal model of AD” value in data set [2] is on record as “efficacious”. In addition, the “neuroprotective properties in nematodes” value with nematodes is given as “shows neuroprotective properties”. Also, the “cognitive performance in wild-type mice” value with wild-type mice was “improves cognitive performance”.
